Legend:
[1] = target: PIM-1 (Homo sapiens (Human), UniProt P11309); test: Luminometric kinase assay for PIM1 kinase (Kinase-Glo); type: biochemical; conditions: 1 μM ATP, 25 min at RT
Description: Kinase assay was performed using luminescent Kinase-Glo® (Promega) system. The Kinase-Glo® Luminescent Kinase Assay Platform provides a homogeneous, high-throughput screening method for measuring kinase activity by quantifying the amount of ATP remaining in solution following a kinase reaction. The luminescent signal is correlated with the amount of ATP present and is inversely correlated with the kinase activity. Appropriate amounts of both kinase and substrate were mixed in 96-well, white wall plate in the reaction buffer (8 mM MOPS/NaOH, pH7.0, 0.2 mM EDTA, 2 mM MgCl2). Tested compounds were diluted in DMSO and serial dilutions starting with 1 μM were added to the palates. Reaction was initiated by adding 1 μM of ATP solution and conducted for 25 min. at RT. Luminescent signal was detected by adding Kinase-Glo® reagent and measured using a microplate spectrophotometer (Synergy 2 multi-mode microplate reader (BioTek)). IC50 values were obtained by fitting sigmoidal dose-response curve (variable slope) using GraphPad Prism software.

[2] = system: human myelomonocytic, biphenotypic leukemia MV4-11 cells; test: Growth inhibition test (MTS) on MV4-11 cells; type: cell-based; conditions: Homo sapiens, MV4-11, 72 hours, read-out: MV-4-11 ED50
Description: (§1) Ten thousand cells of human myelomonocytic, biphenotypic leukemia MV4-11 were inoculated into each well of a 96-well microplate (manufactured by Corning Corp.) using Iscove's MDM medium (culture medium) containing 10% fetal calf serum (FCS). Next day, a dimethyl sulfoxide (DMSO) solution of each test compound prepared in a concentration of 10 mmol/L was further diluted with culture medium to the desired concentrations (0.1, 0.5, 1, 2.5, 5 and 10 micromol/L), and the diluted solution was added to each well. The individual wells were further cultured in 5% carbon dioxide at 37° C. for 72 hours. After completion of the culture, 10 μl MTS (3-(4,5-Dimethyl-2-thiazolyl)-5-(carboxymethoxyphenyl)-2-(4-sulfophenyl)-2H-tetrazolium, inner salt assay (CellTiter96® AQueous One Solution Cell Proliferation Assay, Promega) was added to each well, and culturing was performed in 5% carbon dioxide at 37° C. for 2 hours. Using a microplate spectrophotometer (Synergy 2 multi-mode microplate reader (BioTek)), the absorbance of each well was measured at 490 nm. The value for cells not incorporated with a test compound was designated as 100%. By comparing these values with the absorbance difference obtained at the well in which each test compound was added, the cell viability (% viability) after treatment with the test compound was calculated.

[3] = system: human hepatoma HepG2 cells; test: Growth inhibition test (MTS) on HepG2 cells; type: cell-based; conditions: 72 hours, read-out: HepG2 ED50
Description: as §1, with “Two” for “Ten”, “hepatoma HepG2” for “myelomonocytic, biphenotypic leukemia MV4-11”, “DMEM” for “Iscove's MDM”

[4] = system: human prostate adenocarcinoma PC3 cells; test: Growth inhibition test (MTS) on PC3 cells; type: cell-based; conditions: Homo sapiens, PC-3, 72 hours, read-out: PC-3 ED50
Text: as §1, with “Two” for “Ten”, “prostate adenocarcinoma PC3” for “myelomonocytic, biphenotypic leukemia MV4-11”, “Corp.), and” for “Corp.)”, “F12K (Ham's F12:[…] 1:1)” for “Iscove's MDM”

[5] = system: human breast adenocarcinoma MCF7 cells; test: Growth inhibition test (MTS) on MCF7 cells; type: cell-based; conditions: Homo sapiens, MCF7, 72 hours, read-out: MCF-7 ED50
Description: as §1, with “Two” for “Ten”, “breast adenocarcinoma MCF7” for “myelomonocytic, biphenotypic leukemia MV4-11”, “Corp.), and” for “Corp.)”, “DMEM” for “Iscove's MDM”

Chain of PIM-1 (P11309 whole entry): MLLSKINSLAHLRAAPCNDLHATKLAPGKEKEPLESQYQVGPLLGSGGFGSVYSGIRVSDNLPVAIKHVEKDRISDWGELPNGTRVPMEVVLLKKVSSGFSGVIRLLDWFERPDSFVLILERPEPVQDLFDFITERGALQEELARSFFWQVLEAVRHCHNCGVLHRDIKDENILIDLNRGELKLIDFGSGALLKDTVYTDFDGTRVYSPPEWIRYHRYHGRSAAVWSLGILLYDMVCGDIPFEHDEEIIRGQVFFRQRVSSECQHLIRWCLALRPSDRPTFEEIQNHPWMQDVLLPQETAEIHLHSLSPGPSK

SMILES | IC50 [1] | IC50 [2] | IC50 [3] | IC50 [4] | IC50 [5]
N[C@@H]1CC=CC[C@H]1Nc1nc2c(Br)c(Br)c(Br)c(Br)c2[nH]1 (relative stereo) [Compound 331, Trans N1-(4,5,6,7-tetrabromo-1H-benzo[d]imidazol-2-yl)cyclohex-4-ene-1,2-diamine] | 14.8 nM | 1360 nM |  |  | 
Brc1c(Br)c(Br)c2[nH]c(N3CCCC3)nc2c1Br [Compound 18, 4,5,6,7-tetrabromo-2-(pyrrolidin-1-yl)-1H-benzo[d]imidazole] | 13.3 nM | 7680 nM |  |  | 
Brc1c(Br)c(Br)c2[nH]c(Nc3ccncc3)nc2c1Br [Compound 28, 4,5,6,7-tetrabromo-N-(pyridin-4-yl)-1H-benzo[d]imidazol-2-amine] | 37 nM |  |  |  | 
Brc1c(Br)c(Br)c2[nH]c(NCCCN3CCCCC3)nc2c1Br [Compound 59, 4,5,6,7-tetrabromo-N-(3-(piperidin-1-yl)propyl)-1H-benzo[d]imidazol-2-amine] | 50.8 nM |  | 3600 nM |  | 
NCCCCNc1nc2c(Br)c(Br)c(Br)c(Br)c2[nH]1 [Compound 61, N-(4-aminobutyl)-4,5,6,7-tetrabromo-1H-benzo[d]imidazol-2-amine] | 8.85 nM |  | 7350 nM | 8330 nM | 
Brc1c(Br)c(Br)c2[nH]c(NCC3CCNCC3)nc2c1Br [Compound 67, 4,5,6,7-tetrabromo-N-((piperidin-4-yl)methyl)-1H-benzo[d]imidazol-2-amine] | 65.2 nM |  |  |  | 
Brc1c(Br)c(Br)c2[nH]c(Nc3ccccc3)nc2c1Br [Compound 79, 4,5,6,7-tetrabromo-N-phenyl-1H-benzo[d]imidazol-2-amine] | 68.2 nM |  | 6520 nM |  | 
Brc1c(Br)c(Br)c2[nH]c(NCc3ccccc3)nc2c1Br [Compound 82, N-benzyl-4,5,6,7-tetrabromo-1H-benzo[d]imidazol-2-amine] | 200 nM |  |  |  | 
CN(C)CCCN(Cc1ccccc1)c1nc2c(Br)c(Br)c(Br)c(Br)c2[nH]1 [Compound 85, N-benzyl-4,5,6,7-tetrabromo-N-(3-(dimethylamino)propyl)-1H-benzo[d]imidazol-2-amine] | 65.3 nM | 2660 nM | 2840 nM | 5840 nM | 4120 nM
Nc1ccc(Nc2nc3c(Br)c(Br)c(Br)c(Br)c3[nH]2)cc1 [Compound 86, N1-(4,5,6,7-tetrabromo-1H-benzo[d]imidazol-2-yl)benzene-1,4-diamine] | 66 nM |  |  |  | 
NCC(O)CNc1nc2c(Br)c(Br)c(Br)c(Br)c2[nH]1 (stereo not shown) [Compound 90, 1-(4,5,6,7-tetrabromo-1H-benzo[d]imidazol-2-ylamino)-3-aminopropan-2-ol] | 13.1 nM |  | 3980 nM | 6520 nM | 
CN(C)CCN(Cc1ccccc1)c1nc2c(Br)c(Br)c(Br)c(Br)c2n1Cc1ccccc1 [Compound 95, N,1-dibenzyl-4,5,6,7-tetrabromo-N-(2-(dimethylamino)ethyl)-1H-benzo[d]imidazol-2-amine] | 75.7 nM | 7610 nM |  |  | 
CN(Cc1ccccc1)c1nc2c(Br)c(Br)c(Br)c(Br)c2[nH]1 [Compound 117, N-benzyl-4,5,6,7-tetrabromo-N-methyl-1H-benzo[d]imidazol-2-amine] | 85.6 nM | 9400 nM |  |  | 
Brc1c(Br)c(Br)c2[nH]c(NCCc3ccccn3)nc2c1Br [Compound 128, 4,5,6,7-tetrabromo-N-(2-(pyridin-2-yl)ethyl)-1H-benzo[d]imidazol-2-amine] | 71.3 nM | 3830 nM |  |  | 
Cc1c(Nc2nc3c(Br)c(Br)c(Br)c(Br)c3[nH]2)cccc1-c1nncn1C [Compound 248, 4,5,6,7-tetrabromo-N-(2-methyl-3-(4-methyl-4H-1,2,4-triazol-3-yl)phenyl)-1H-benzo[d]imidazol-2-amine] | 48.9 nM |  |  |  | 
Cc1nccn1CC1CCCN(c2nc3c(Br)c(Br)c(Br)c(Br)c3[nH]2)C1 (stereo not shown) [Compound 262, 4,5,6,7-tetrabromo-2-(3-((2-methyl-1H-imidazol-1-yl)methyl)piperidin-1-yl)-1H-benzo[d]imidazole] | 61.4 nM |  |  |  | 
Brc1c(Br)c(Br)c2[nH]c(N3CCCC(CN4CCN(c5ccccn5)CC4)C3)nc2c1Br (stereo not shown) [Compound 266, 4,5,6,7-tetrabromo-2-(3-((4-(pyridin-2-yl)piperazin-1-yl)methyl)piperidin-1-yl)-1H-benzo[d]imidazole] | 294 nM | 2550 nM | 2480 nM |  | 
Oc1ncc(Nc2nc3c(Br)c(Br)c(Br)c(Br)c3[nH]2)c(O)n1 [Compound 303, 5-(4,5,6,7-tetrabromo-1H-benzo[d]imidazol-2-ylamino)pyrimidine-2,4-diol] | 128 nM |  |  |  | 
OC1CCCCC1Nc1nc2c(Br)c(Br)c(Br)c(Br)c2[nH]1 (stereo not shown) [Compound 334, 2-(4,5,6,7-tetrabromo-1H-benzo[d]imidazol-2-ylamino)cyclohexanol] | 14.1 nM | 5340 nM |  |  | 
CN(c1ccccc1)c1nc2c(Br)c(Br)c(Br)c(Br)c2[nH]1 [Compound 342, 4,5,6,7-tetrabromo-N-methyl-N-phenyl-1H-benzo[d]imidazol-2-amine] | 28.6 nM |  |  |  | 
CN(C)CCN1CCN(c2nc3c(Br)c(Br)c(Br)c(Br)c3[nH]2)CC1 [Compound 343, 2-(4-(4,5,6,7-tetrabromo-1H-benzo[d]imidazol-2-yl)piperazin-1-yl)-N,N-dimethylethanamine] | 36.8 nM |  |  |  | 
Brc1c(Br)c(Br)c2[nH]c(N3CCN4CCC3CC4)nc2c1Br [Compound 350, 2-(4,5,6,7-tetrabromo-1H-benzo[d]imidazol-2-yl)-2,5-diaza-bicyclo[3.2.2]nonane] | 32.7 nM | 5520 nM | 5550 nM | 8480 nM | 6550 nM
Brc1c(Br)c(Br)c2[nH]c(N3CCNc4ccccc43)nc2c1Br [Compound 367, 1-(4,5,6,7-tetrabromo-1H-benzo[d]imidazol-2-yl)-1,2′,3,4-tetrahydroquinoxaline] | 39.5 nM | 3770 nM |  |  | 

Source: patent US8604217B2, “Compound, a process for its preparation, a pharmaceutical composition, use of a compound, a method for modulating or regulating serine/threonine kinases and a serine/threonine kinases modulating agent” (Selvita S.A., priority 2009, dated 2013)
